Assay results from ChEMBL document CHEMBL1287762, “Synthesis and biological evaluation of 3-[4-(amino/methylsulfonyl)phenyl]methylene-indolin-2-one derivatives as novel COX-1/2 and 5-LOX inhibitors” (Bioorg Med Chem Lett, 2010).

Experiments:
[1] = target: T1, Prostaglandin G/H synthase 2 (Oryctolagus cuniculus, UniProt O02768); assay: Inhibition of COX-2 in rabbit peripheral venous blood assessed as formation of 12-hydroxyheptadecatrienoic acid after 24 hrs in by HPLC presence of calcium ionophore […] and lipopolysaccharide; format: tissue-based
T1 sequence (O02768 whole entry): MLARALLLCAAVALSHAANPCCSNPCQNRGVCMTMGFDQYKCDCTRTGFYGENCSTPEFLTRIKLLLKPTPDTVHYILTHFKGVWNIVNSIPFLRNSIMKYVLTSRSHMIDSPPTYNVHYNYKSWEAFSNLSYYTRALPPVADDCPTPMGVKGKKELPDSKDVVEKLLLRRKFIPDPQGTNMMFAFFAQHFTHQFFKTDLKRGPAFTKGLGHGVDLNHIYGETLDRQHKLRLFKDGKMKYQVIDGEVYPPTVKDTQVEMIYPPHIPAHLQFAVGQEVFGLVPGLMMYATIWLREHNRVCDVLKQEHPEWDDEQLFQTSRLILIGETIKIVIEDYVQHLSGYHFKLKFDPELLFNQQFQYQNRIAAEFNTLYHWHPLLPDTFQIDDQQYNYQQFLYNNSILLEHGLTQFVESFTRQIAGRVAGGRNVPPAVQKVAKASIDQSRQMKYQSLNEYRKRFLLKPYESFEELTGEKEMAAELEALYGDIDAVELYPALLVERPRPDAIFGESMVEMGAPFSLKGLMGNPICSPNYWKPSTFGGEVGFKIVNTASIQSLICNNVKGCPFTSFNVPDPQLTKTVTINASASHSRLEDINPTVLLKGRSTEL

Rattus norvegicus [2] = assay: Antiinflammatory activity in Wistar rat assessed as inhibition of carrageenan-induced paw edema at 9.65 mg/kg, po administered 1 hr before carrageenan challenge measured at 3 hrs by plethysmometer; format: functional
Rattus norvegicus [3] = assay: Antiinflammatory activity in Wistar rat assessed as inhibition of carrageenan-induced paw edema at 9.65 mg/kg, po administered 1 hr before carrageenan challenge measured at 1 hr by plethysmometer; format: functional
[4] = Inhibition of 5-LOX in rabbit peripheral venous blood assessed as formation of […] after 30 mins by HPLC; format: tissue-based, Oryctolagus cuniculus
Rattus norvegicus [5] = assay: Ulcerogenic effect in Wistar rat assessed as gastric ulcer area at 9.65 mg/kg, po administered for 7 days by microscopy; format: toxicity, organism-based, Stomach; set-up: dose 9.65 mg/kg, route oral; conditions: in vivo, 168 h
Mus musculus [6] = assay: Analgesic activity in BALB/c mouse assessed as inhibition of acetic acid-induced writhing response for 15 mins at 19.30 mg/kg, po; format: functional; conditions: 0.25 h
Rattus norvegicus [7] = assay: Antiinflammatory activity in Wistar rat assessed as inhibition of carrageenan-induced paw edema at 9.65 mg/kg, po administered 1 hr before carrageenan challenge measured at 6 hrs by plethysmometer; format: functional
[8] = target: T2, Prostaglandin G/H synthase 1 (Oryctolagus cuniculus, UniProt O97554); assay: Inhibition of COX-1 in rabbit peripheral venous blood assessed as formation of 12-hydroxyheptadecatrienoic acid after 24 hrs by HPLC in presence of calcium ionophore A23187
T2 sequence (O97554 whole entry): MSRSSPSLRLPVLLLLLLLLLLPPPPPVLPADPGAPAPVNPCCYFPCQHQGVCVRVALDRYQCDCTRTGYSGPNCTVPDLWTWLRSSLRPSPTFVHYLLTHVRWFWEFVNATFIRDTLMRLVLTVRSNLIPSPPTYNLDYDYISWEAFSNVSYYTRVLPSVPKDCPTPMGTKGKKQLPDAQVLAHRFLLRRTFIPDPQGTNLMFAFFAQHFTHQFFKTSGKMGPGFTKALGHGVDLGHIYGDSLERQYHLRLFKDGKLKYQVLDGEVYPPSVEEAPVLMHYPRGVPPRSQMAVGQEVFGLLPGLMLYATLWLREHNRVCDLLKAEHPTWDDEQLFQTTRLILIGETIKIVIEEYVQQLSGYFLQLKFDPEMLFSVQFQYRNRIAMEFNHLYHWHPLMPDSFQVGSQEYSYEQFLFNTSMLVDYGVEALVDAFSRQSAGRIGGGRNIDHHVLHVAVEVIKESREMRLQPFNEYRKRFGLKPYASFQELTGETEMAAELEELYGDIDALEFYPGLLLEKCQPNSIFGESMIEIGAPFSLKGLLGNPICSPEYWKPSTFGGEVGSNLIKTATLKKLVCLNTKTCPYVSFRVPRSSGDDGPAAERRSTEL

Oryctolagus cuniculus = organism: Oryctolagus cuniculus; assay: Selectivity ratio, IC50 for COX-1in rabbit peripheral venous blood to IC50 for COX-2 in rabbit peripheral venous blood; format: tissue-based
Mus musculus [9] = assay: Analgesic activity in BALB/c mouse assessed as inhibition of acetic acid-induced writhing response for 15 mins at 18.16 mg/kg, po; format: functional; conditions: 0.25 h
Rattus norvegicus [10] = assay: Ulcerogenic effect in Wistar rat assessed as gastric ulcer area at 9.08 mg/kg, po administered for 7 days by microscopy; format: toxicity, organism-based, Stomach; set-up: dose 9.08 mg/kg, route oral; conditions: in vivo, 168 h
Rattus norvegicus [11] = assay: Antiinflammatory activity in Wistar rat assessed as inhibition of carrageenan-induced paw edema at 9.08 mg/kg, po administered 1 hr before carrageenan challenge measured at 6 hrs by plethysmometer; format: functional
Rattus norvegicus [12] = assay: Antiinflammatory activity in Wistar rat assessed as inhibition of carrageenan-induced paw edema at 9.08 mg/kg, po administered 1 hr before carrageenan challenge measured at 1 hr by plethysmometer; format: functional
Rattus norvegicus [13] = assay: Antiinflammatory activity in Wistar rat assessed as inhibition of carrageenan-induced paw edema at 9.08 mg/kg, po administered 1 hr before carrageenan challenge measured at 3 hrs by plethysmometer; format: functional
Rattus norvegicus [14] = assay: Ulcerogenic effect in Wistar rat assessed as gastric ulcer area at 10.15 mg/kg, po administered for 7 days by microscopy; format: toxicity, organism-based, Stomach; set-up: dose 10.15 mg/kg, route oral; conditions: in vivo, 168 h
Rattus norvegicus [15] = assay: Antiinflammatory activity in Wistar rat assessed as inhibition of carrageenan-induced paw edema at 10.15 mg/kg, po administered 1 hr before carrageenan challenge measured at 1 hr by plethysmometer; format: functional
Rattus norvegicus [16] = assay: Antiinflammatory activity in Wistar rat assessed as inhibition of carrageenan-induced paw edema at 10.15 mg/kg, po administered 1 hr before carrageenan challenge measured at 3 hrs by plethysmometer; format: functional
Rattus norvegicus [17] = assay: Antiinflammatory activity in Wistar rat assessed as inhibition of carrageenan-induced paw edema at 10.15 mg/kg, po administered 1 hr before carrageenan challenge measured at 6 hrs by plethysmometer; format: functional
Mus musculus [18] = assay: Analgesic activity in BALB/c mouse assessed as inhibition of acetic acid-induced writhing response for 15 mins at 20.30 mg/kg, po; format: functional; conditions: 0.25 h
Mus musculus [19] = assay: Analgesic activity in BALB/c mouse assessed as inhibition of acetic acid-induced writhing response for 15 mins at 20.24 mg/kg, po; format: functional; conditions: 0.25 h
Rattus norvegicus [20] = assay: Antiinflammatory activity in Wistar rat assessed as inhibition of carrageenan-induced paw edema at 10.12 mg/kg, po administered 1 hr before carrageenan challenge measured at 6 hrs by plethysmometer; format: functional
Rattus norvegicus [21] = assay: Ulcerogenic effect in Wistar rat assessed as gastric ulcer area at 10.12 mg/kg, po administered for 7 days by microscopy; format: toxicity, organism-based, Stomach; set-up: dose 10.12 mg/kg, route oral; conditions: in vivo, 168 h
Rattus norvegicus [22] = assay: Antiinflammatory activity in Wistar rat assessed as inhibition of carrageenan-induced paw edema at 10.12 mg/kg, po administered 1 hr before carrageenan challenge measured at 1 hr by plethysmometer; format: functional
Rattus norvegicus [23] = assay: Antiinflammatory activity in Wistar rat assessed as inhibition of carrageenan-induced paw edema at 10.12 mg/kg, po administered 1 hr before carrageenan challenge measured at 3 hrs by plethysmometer; format: functional

Compound	IC50 [1]	IC50 [4]	IC50 [8]	Ratio IC50 (Oryctolagus cuniculus)	other results
NS(=O)(=O)c1ccc(/C=C2/C(=O)Nc3ccc(F)cc32)cc1	0.18 µM	9.87 µM	0.62 µM	3.44	inhibition in vivo at 9.65 mg/kg (Rattus norvegicus [2]): 44.4%; inhibition in vivo at 9.65 mg/kg (Rattus norvegicus [3]): 33.3%; Activity (Rattus norvegicus [5]): 0.45 mm2; inhibition in vivo at 19.3 mg/kg (Mus musculus [6]): 54%; inhibition in vivo at 9.65 mg/kg (Rattus norvegicus [7]): 27.4%
CS(=O)(=O)c1ccc(/C=C2/C(=O)Nc3ccccc32)cc1	5.52 µM	9.51 µM	9.32 µM	1.69	inhibition in vivo at 18.16 mg/kg (Mus musculus [9]): 54.4%; Activity (Rattus norvegicus [10]): 0.56 mm2; inhibition in vivo at 9.08 mg/kg (Rattus norvegicus [11]): 21.6%; inhibition in vivo at 9.08 mg/kg (Rattus norvegicus [12]): 28.6%; inhibition in vivo at 9.08 mg/kg (Rattus norvegicus [13]): 38.9%
Cc1ccc2c(c1)/C(=C\c1ccc(S(N)(=O)=O)cc1)C(=O)N2	> 50 µM	> 50 µM	> 50 µM		
NS(=O)(=O)c1ccc(/C=C2/C(=O)Nc3ccc(Cl)cc32)cc1	3.31 µM	3.37 µM	0.16 µM	0.05	Activity (Rattus norvegicus [14]): 0.19 mm2; inhibition in vivo at 10.15 mg/kg (Rattus norvegicus [15]): 19.1%; inhibition in vivo at 10.15 mg/kg (Rattus norvegicus [16]): 33.3%; inhibition in vivo at 10.15 mg/kg (Rattus norvegicus [17]): 19.6%; inhibition in vivo at 20.3 mg/kg (Mus musculus [18]): 80.7%
Cc1ccc2c(c1)/C(=C\c1ccc(S(C)(=O)=O)cc1)C(=O)N2	> 50 µM	> 50 µM	> 50 µM		
CS(=O)(=O)c1ccc(/C=C2/C(=O)Nc3ccc(F)cc32)cc1	> 50 µM	9.42 µM	8.99 µM		
CS(=O)(=O)c1ccc(/C=C2/C(=O)Nc3cc(Cl)ccc32)cc1	2.39 µM	2.99 µM	0.24 µM	0.1	inhibition in vivo at 20.24 mg/kg (Mus musculus [19]): 55.2%; inhibition in vivo at 10.12 mg/kg (Rattus norvegicus [20]): 21.6%; Activity (Rattus norvegicus [21]): 0.75 mm2; inhibition in vivo at 10.12 mg/kg (Rattus norvegicus [22]): 19.4%; inhibition in vivo at 10.12 mg/kg (Rattus norvegicus [23]): 23.8%
NS(=O)(=O)c1ccc(/C=C2/C(=O)Nc3ccc(Br)cc32)cc1	20.9 µM	10.6 µM	24.6 µM	1.18	
